Experimental data as given in publication PMC7312375, “A Novel, Pan-PDE Inhibitor Exerts Anti-Fibrotic Effects in Human Lung Fibroblasts via Inhibition of TGF-β Signaling and Activation of cAMP/PKA Signaling” (International Journal of Molecular Sciences, 2020).

Experiments:
MRC-5 cells = assay: Intracellular calcium measurements (Fluo-4); assay type: cell-based, human
Procedure: MRC-5 cells were briefly washed with NaHEPES buffer (NaHEPES buffer was prepared as follows: NaCl 140 mM, KCl 4.7 mM, HEPES 10 mM, MgCl2 1 mM, glucose 10 mM; pH 7.3) and then loaded with 1 µM Fluo-4 AM (Thermo Fisher Scientific, Waltham, MA, USA) for 1 h, 37 °C in NaHEPES. After the incubation, the cells were washed again with fresh NaHEPES and used for experiments in a flow chamber perfused with NaHEPES-based extracellular solution supplemented with 1 mM CaCl2. All experiments were carried out at room temperature using Zeiss LSM 880 confocal microscope (40× oil objective), excitation was set to 488 nm, and the emission was between 500 and 600 nm. Each series of images was recorded at 256 × 256-pixel resolution, two consecutive frames were averaged, and the interval between the averaged images was set at 2 s. Fluorescence signals were plotted as F/F0, where F0 was baseline fluorescence defined as the averaged signal from ten consecutive baseline images.

[1] = test system: TGF-β1-induced MRC-5 cells; assay: Immunofluorescence, nuclear localization of p-CREB; assay type: cell-based, human; settings: 10 µM
Procedure: (§1) For immunocytochemical labeling, MRC-5 cells were seeded on glass coverslips. Study compounds (10 µM) were added 1 h before TGF-β1 treatment, and analysis was performed after 1 h (p-Smad-2 and p-CREB detection) or 48 h (α-SMA detection) of incubation. Cells were fixed in methanol or 4% formaldehyde solution, permeabilized in 0.2% or 0.1% Triton X-100 solution (for p-Smad-2 and p-CREB or α-SMA, respectively). After incubation in blocking solution the following primary antibodies: rabbit polyclonal, anti-phospho-Smad-2 (Ser465, Ser467) antibody (#44-244G, Thermo Fisher Scientific, Waltham, MA, USA); rabbit polyclonal, anti-phospho-CREB1 (Ser133) antibody (#orb213775, Biorbyt, Cambridge, United Kingdom); mouse monoclonal, anti-α-SMA antibody (#MA5-11547, Thermo Fisher Scientific, Waltham, MA, USA) and secondary antibodies: goat anti-rabbit Alexa Fluor 546 conjugated antibody and goat anti-mouse Alexa Fluor 488 conjugated antibody (#A-11010 and #A-11001, respectively, Invitrogen, Carlsbad, CA, USA) were used. Nuclei were counterstained with Hoechst 33342 dye (Thermo Fisher Scientific, Waltham, MA, USA). Slides were mounted in ProLong™ Glass Antifade Mountant (Invitrogen, Carlsbad, CA, USA) and analyzed using Leica DMiL LED Fluo microscope (for α-SMA and p-CREB visualization, 40× objective) or Leica DMi8 with Thunder Imaging System (for p-Smad-2 visualization, 40× objective), all equipped with LAS-X Software (Leica Microsystems GmbH, Wetzlar, Germany). Experiments were run four times using five randomly selected fields of view, at the same fluorescent time exposure and in a blind-folded manner.

[2] = test system: TGF-β1-induced MRC-5 cells; assay: Immunofluorescence count of α-SMA positive myofibroblasts; assay type: cell-based, human; settings: 10 µM, 48 h TGF-β1 5 ng/mL
Procedure: as §1

PDE1C = target: T1, PDE1C (Homo sapiens, UniProt Q14123); assay: PDE-Glo assay, human recombinant PDE1C; assay type: biochemical; settings: read-out: PDE-IC50 1C
T1 construct: purchased SignalChem
T1 sequence (Q14123 whole entry): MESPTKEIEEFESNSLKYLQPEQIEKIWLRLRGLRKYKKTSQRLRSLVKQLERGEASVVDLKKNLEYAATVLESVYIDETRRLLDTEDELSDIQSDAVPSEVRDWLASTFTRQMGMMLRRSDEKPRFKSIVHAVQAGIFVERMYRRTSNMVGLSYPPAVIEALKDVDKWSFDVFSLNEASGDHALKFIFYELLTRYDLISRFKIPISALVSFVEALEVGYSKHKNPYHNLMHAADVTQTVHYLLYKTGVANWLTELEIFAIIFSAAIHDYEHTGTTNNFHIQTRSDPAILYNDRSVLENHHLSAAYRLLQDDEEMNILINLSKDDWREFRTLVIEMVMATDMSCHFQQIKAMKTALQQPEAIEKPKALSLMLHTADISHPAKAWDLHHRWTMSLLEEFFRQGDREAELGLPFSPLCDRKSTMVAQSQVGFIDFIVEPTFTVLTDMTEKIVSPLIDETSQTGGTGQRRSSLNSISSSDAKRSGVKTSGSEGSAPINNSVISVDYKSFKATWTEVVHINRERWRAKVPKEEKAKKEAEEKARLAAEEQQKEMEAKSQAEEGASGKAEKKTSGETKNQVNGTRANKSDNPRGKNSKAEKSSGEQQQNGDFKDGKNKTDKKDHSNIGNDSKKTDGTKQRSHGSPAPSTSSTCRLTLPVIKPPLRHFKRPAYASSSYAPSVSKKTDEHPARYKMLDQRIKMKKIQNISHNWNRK
Procedure: Inhibitory activities of the investigated compounds against various subtypes of human recombinant (hr)PDEs, namely PDE1A, PDE1B, PDE1C, PDE3A, PDE3B, PDE4A, PDE4B, PDE4D, PDE7A, and PDE8A were assessed using a PDE-Glo^TM Assay Kit (Promega, Madison, WI, USA) according to the protocol provided by the manufacturer. Briefly, appropriate amounts of each enzyme (SignalChem, Richmond, B.C., Canada), diluted with PDE-Glo reaction buffer, were distributed on a 384-well plate (Thermo Scientific, Waltham, MA, USA). The investigated compounds were dissolved in DMSO, diluted with the same vehicle, and mixed with the reaction buffer at a v/v ratio of 1:5. Thereafter, 1 µL of these mixtures and 2.5 µL of the cAMP solution as a substrate were added. The final cAMP concentration was 0.05 µM. The samples were incubated for 10 min at 30 °C. Then, 2.5 µL of termination buffer and 2.5 µL of PDE-Glo detection solution were added to each well and incubated for 20 min. Finally, 10 µL of PDE-Glo kinase reagent was added, and luminescence was measured using the POLARstar Omega plate reader (BMG LABTECH, Ortenberg, Germany). Each sample was prepared in quadruplicate. The relative activities (A, %) of all samples were calculated from the following equation: A = [(LUsample − LUblank)/(LUcontrol − LUblank)]·100%; where LUcontrol is the luminescence of a control sample in the absence of a PDE inhibitor, LUsample is a luminescence of an investigated sample in the presence of an inhibitor, and LUblank is a luminescence of a sample in the absence of enzyme (activity = 0). IC50 values were estimated using non-linear regression.

| Compound | increase in average Ca2+ response area over baseline (MRC-5 cells; 10 µM, acute application) | elevation of fraction of MRC-5 cells with nuclear p-CREB localization [1] | number of myofibroblasts (MRC-5 with α-SMA-positive stress fibers); fibroblast to myofibroblast transition [2] | IC50 (PDE1C) | Ca2+ responses under TRPA1 inhibition by HC-030031 (MRC-5 cells; 145 10 µM in the presence of HC-030031 10 µM) | effect on Ca2+ influx in lung fibroblasts (MRC-5 cells; 10 µM, acute application) |
| --- | --- | --- | --- | --- | --- | --- |
| Cn1c(=O)c2c(nc(NCc3ccco3)n2CCCC(=O)NN=Cc2ccc(O)cc2O)n(C)c1=O [Compound 832, N′-(2,4-dihydroxybenzylidene)-4-(8-((furan-2-ylmethyl)amino)-1,3-dimethyl-2,6-dioxo-1,2,3,6-tetrahydro-7H-purin-7-yl)butanehydrazide] | two-fold | only a slight increase | decreased | 89.2 µM |  |  |
| CCCCOc1nc2c(c(=O)n(C)c(=O)n2C)n1CCCC(=O)Nc1cc(C(C)(C)C)ccc1O [Compound 145, 4-(8-butoxy-1,3-dimethyl-2,6-dioxo-1,2,3,6-tetrahydro-7H-purin-7-yl)-N-(5-(tert-butyl)-2-hydroxyphenyl)butanamide] | four-fold | 70% | the most significant decrease | 48.5 µM | failed to induce Ca^2+ responses |  |
| COc1nc2c(c(=O)n(C)c(=O)n2C)n1CC(=O)Nc1ccc(C(C)(C)C)cc1 [Compound 869, N-(4-(tert-butyl)phenyl)-2-(8-methoxy-1,3-dimethyl-2,6-dioxo-1,2,3,6-tetrahydro-7H-purin-7-yl)acetamide] |  | only a slight increase | decreased | 172 µM |  | inhibited Ca^2+ influx |
| CC(C)Cn1c(=O)n(C)c(=O)c2[nH]cnc21 [IBMX, 3-isobutyl-1-methyl-3,7-dihydro-1H-purine-2,6-dione, reference compound] |  | only a slight increase |  | 12.5 µM |  |  |
